Data as given in US4400517A, “Phosphoric esters derived from 1,2,4-triazole having an insecticidal, nematocidal and acaricidal action, and their preparation” (priority 1976, dated 1983).

How the values were obtained:
Assay type in all cases: in vivo
Culex pipiens = assay: Biological activity on Culex pipiens larvae (Diptera); conditions: 24 h, Table 5, read-out: Activity (mortality class), Culex P. (larvae)
Experimental: (4) Biological activity on Culex pipiens (Diptera)
Into glasses containing an aqueous dispersion of the products under examination (see Tables 4 and 5) there were introduced mosquito larvae of third and fourth age.
The mortality percentage of the larvae (glasses containing pure water=0) was determined after 24 hours from treatment.

Tetranychus urticae = assay: Biological activity on adults of Tetranychus urticae (Acari); conditions: 24 h, Table 5, read-out: Activity (mortality class), Tetranychus U. (adults); for mortality at 0.001 %: 0.01%o; for mortality at 0.1 %: 1%o
Experimental: (5) Biological activity on adults of Tetranychus urticae (Acari)
Discs of bean leaves were infested with adult acari and then sprinkled with an aqueous dispersion of the products under examination (see Tables 4 and 5).
The mortality percentage was determined after 24 hours from treatment (untreated leaf discs, mortality=0).

Blatta orientalis = assay: Biological activity on Blatta orientalis (Ortoptera); conditions: Blatta orientalis, 48 h, Table 5, read-out: Activity (mortality class), Blatta O.; for mortality at 1 g/m2: 1 g/m^2; for mortality at 0.01 g/m2: 0,01 g/m^2
Experimental: (10) Biological activity on Blatta orientalis (Ortoptera)
The bottom and walls of glass crystallizers were treated uniformly with an acetonic solution of the products under examination (see Tables 4 and 5). After evaporation of the solvent, into each crystallizer were introduced ten 80-100 days old neanides. The crystallizers were then closed with a metal net cover. After 24 hours from the start of the treatment, the insects were transferred to similar untreated crystallizers, and there were appropriately nourished in conventional manner.
The percentage of mortality (untreated insects=0) was determined after 48 hours from the start of the treatment.

[1] = test system: Leptinotarsa decemlineata; assay: Biological activity on Leptinotarsa decemlineata (Coleoptera); conditions: 48 h, Table 5, read-out: Activity (mortality class), Leptinotarsa D.; for mortality at 0.005 %: 0.05%o; for mortality at 0.1 %: 1%o
Experimental: (3) Biological activity on Leptinotarsa decemlineata (Coleoptera)
Small potato plants grown in pots were infested with 4-day old larvae, and were then sprinkled with an aqueous dispersion of the products under examination (see Tables 4 and 5).
The mortality percentage (untreated small plants=0) was determined after 48 hours from treatment.

Pieris brassicae = assay: Biological activity on Pieris brassicae (Lepidoptera); conditions: 48 h, Table 5, read-out: Activity (mortality class), Pieris B.; for mortality at 0.001 %: 0.01%o; for mortality at 0.1 %: 1%o
Experimental: (2) Biological activity on Pieris brassicae (Lepidotera)
Cut-off cauliflower leaves were sprinkled with an aqueous dispersion of the products under examination (see TABLE 5).
After drying, the leaves were infested with 5-day old larvae. The percentage of mortality of the larvae (untreated leaves=0) was determined after 48 hours from treatment.

Spodoptera littoralis = assay: Biological activity on Spodoptera littoralis (Lepidoptera); conditions: 48 h, Table 5, read-out: Activity (mortality class), Spodoptera L.; for mortality at 0.1 %: 1%o; for mortality at 0.005 %: 0.05%o
Experimental: (7) Biological activity on Spodoptera littoralis (Lepidoptera)
Cut tobacco leaves were sprinkled with an aqueous dispersion of the products under examination (see Tables 4 and 5).
After drying, the leaves were infested with 5-day old larvae.
The percentage of mortality of the larvae was determined after 48 hours from treatment (untreated leaves, mortality=0).

| Compound | mortality at 2 ppm (Culex pipiens) [%] | mortality at 0.001 % (Tetranychus urticae) [%] | mortality at 0.1 % (Tetranychus urticae) [%] | mortality at 1 g/m2 (Blatta orientalis) [%] | mortality at 0.005 % [1] [%] | mortality at 0.1 % [1] [%] | mortality at 0.001 % (Pieris brassicae) [%] | mortality at 0.1 % (Pieris brassicae) [%] | mortality at 0.1 % (Spodoptera littoralis) [%] | mortality at 0.02 ppm (Culex pipiens) [%] | mortality at 0.01 g/m2 (Blatta orientalis) [%] | mortality at 0.005 % (Spodoptera littoralis) [%] |
| --- | --- | --- | --- | --- | --- | --- | --- | --- | --- | --- | --- | --- |
| CCOP(=S)(OCC)Oc1nc(C2=C(Cl)CCCC2)nn1C [M 5338/89] | 100 | 70 to 99 | 100 | 100 | 10 to 69 | 100 | 10 to 69 | 100 | 100 |  |  |  |
| CCOP(=S)(OCC)Oc1nc(C=C(Cl)Cl)nn1CC [M 5349/40] |  | 100 |  |  | 100 |  | 100 |  |  | 100 | 70 to 99 | 100 |
| CCOP(=S)(OCC)Oc1nc(C(=O)c2ccccc2)nn1-c1ccccc1 [M 7480] | 10 to 69 |  | 100 |  |  |  |  |  |  |  |  |  |
| CCOP(=S)(OCC)Oc1nc(C(C)=O)nn1-c1ccccc1 [M 7650] | 100 |  | 100 |  |  | 0 to 9 |  | 100 | 70 to 99 |  |  |  |
| CCOP(=S)(OCC)Oc1nc(C(C)O)nn1-c1ccccc1 (stereo not drawn) [M 7853] | 100 |  | 100 | 10 to 69 |  | 100 |  | 100 | 100 |  |  |  |
| CCOP(=S)(OCC)Oc1nc(C(C)OC(C)=O)nn1-c1ccccc1 (stereo not drawn) [M 8084] | 100 | 10 to 69 | 100 |  |  | 100 |  | 100 | 100 |  |  |  |
| CCOP(=S)(OCC)Oc1nc(C(C)OC(=O)C=C(Cl)Cl)nn1-c1ccccc1 (stereo not drawn) [M 8086] | 100 |  | 100 |  |  | 100 |  | 100 | 100 |  |  |  |
| CCOP(=S)(OCC)Oc1nc(C(Br)=C(Br)Br)nn1C [M 8089, O,O-diethyl-O-(1-methyl-3-tribromovinyl-5-triazolyl)-thiophosphate] | 100 |  | 100 | 100 |  | 100 |  | 100 | 100 |  |  |  |
| CCOP(=S)(OCC)Oc1nc(C(C)N(C)C)nn1-c1ccccc1 (stereo not drawn) [M 8171] | 100 |  | 70 to 99 |  |  |  |  |  |  |  |  |  |
| CCOC(=O)c1nc(OP(=S)(OCC)OCC)n(-c2ccccc2)n1 [M 8257] | 70 to 99 |  | 70 to 99 | 10 to 69 |  | 10 to 69 |  | 70 to 99 |  |  |  |  |
| C=Cc1nc(OP(=S)(OCC)OCC)n(-c2ccccc2)n1 [M 8261] | 100 |  | 100 | 100 |  | 100 |  | 100 | 100 |  |  |  |
| CCOP(=S)(OCC)Oc1nc(C=C(Cl)Cl)nn1Cc1ccccc1 [M 8827] | 100 | 10 to 69 | 100 |  |  | 100 |  |  |  | 10 to 69 |  |  |
| C#CCn1nc(C=C(Cl)Cl)nc1OP(=S)(OCC)OCC [M 8828] | 100 | 70 to 99 | 100 | 100 |  | 100 |  | 100 |  | 10 to 69 |  |  |
| CCOP(=S)(Oc1nc(C=C(Cl)Cl)nn1C)c1ccccc1 (stereo not drawn) [M 9579] | 100 |  | 100 |  |  |  |  |  |  |  |  |  |
| CCOP(=S)(Oc1nc(C=C(Cl)Cl)nn1C)N(C)C (stereo not drawn) [M 9643] |  |  | 100 |  |  |  |  |  | 100 |  |  |  |
| CCOP(=S)(OC)Oc1nc(C=C(Cl)Cl)nn1C (stereo not drawn) [M 9750] | 100 | 100 | 100 | 100 | 10 to 69 | 100 |  |  | 100 | 100 | 100 | 100 |
